Measurements published in BindingDB's records for patent US12419873 (Zhuhai United Laboratories Co., 2025).

Experiments:
[1] = biological target: T1, Tyrosine-protein kinase JAK3 (Homo sapiens, UniProt P52333); experiment: JAK3 (h) Enzyme Reaction
T1 sequence (P52333 whole entry): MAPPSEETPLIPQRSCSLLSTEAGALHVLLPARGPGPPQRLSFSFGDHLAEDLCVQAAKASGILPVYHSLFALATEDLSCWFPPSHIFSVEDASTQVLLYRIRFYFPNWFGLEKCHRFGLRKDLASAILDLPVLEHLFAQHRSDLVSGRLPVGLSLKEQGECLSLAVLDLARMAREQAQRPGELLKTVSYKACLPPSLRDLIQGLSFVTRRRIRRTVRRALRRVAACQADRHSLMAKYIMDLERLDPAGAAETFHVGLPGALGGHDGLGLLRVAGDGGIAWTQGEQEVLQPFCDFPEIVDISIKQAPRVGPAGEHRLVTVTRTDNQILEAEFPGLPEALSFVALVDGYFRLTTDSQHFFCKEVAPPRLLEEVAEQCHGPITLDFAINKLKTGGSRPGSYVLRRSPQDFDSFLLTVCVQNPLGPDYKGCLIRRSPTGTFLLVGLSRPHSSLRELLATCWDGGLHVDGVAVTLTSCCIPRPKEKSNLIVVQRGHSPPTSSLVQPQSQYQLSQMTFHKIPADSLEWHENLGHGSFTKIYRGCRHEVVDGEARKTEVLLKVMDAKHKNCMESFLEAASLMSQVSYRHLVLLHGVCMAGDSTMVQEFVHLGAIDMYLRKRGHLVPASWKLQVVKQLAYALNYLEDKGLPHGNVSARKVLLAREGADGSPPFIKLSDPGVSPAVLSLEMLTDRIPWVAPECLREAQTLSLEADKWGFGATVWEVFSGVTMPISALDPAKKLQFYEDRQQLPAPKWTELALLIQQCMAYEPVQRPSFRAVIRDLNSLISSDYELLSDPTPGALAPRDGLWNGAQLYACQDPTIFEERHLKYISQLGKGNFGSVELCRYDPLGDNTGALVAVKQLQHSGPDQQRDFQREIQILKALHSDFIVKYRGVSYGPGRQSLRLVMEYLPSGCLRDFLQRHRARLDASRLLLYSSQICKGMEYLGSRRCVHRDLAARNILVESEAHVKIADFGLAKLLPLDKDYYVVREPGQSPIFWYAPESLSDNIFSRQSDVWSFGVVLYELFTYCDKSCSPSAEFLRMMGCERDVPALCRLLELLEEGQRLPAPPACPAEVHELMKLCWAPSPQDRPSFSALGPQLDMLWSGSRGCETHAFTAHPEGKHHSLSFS

[2] = biological target: Non-receptor tyrosine-protein kinase TYK2 (Homo sapiens, UniProt P29597); experiment: TYK2 (h) Enzyme Reaction
Sequence of Non-receptor tyrosine-protein kinase TYK2 (P29597 whole entry): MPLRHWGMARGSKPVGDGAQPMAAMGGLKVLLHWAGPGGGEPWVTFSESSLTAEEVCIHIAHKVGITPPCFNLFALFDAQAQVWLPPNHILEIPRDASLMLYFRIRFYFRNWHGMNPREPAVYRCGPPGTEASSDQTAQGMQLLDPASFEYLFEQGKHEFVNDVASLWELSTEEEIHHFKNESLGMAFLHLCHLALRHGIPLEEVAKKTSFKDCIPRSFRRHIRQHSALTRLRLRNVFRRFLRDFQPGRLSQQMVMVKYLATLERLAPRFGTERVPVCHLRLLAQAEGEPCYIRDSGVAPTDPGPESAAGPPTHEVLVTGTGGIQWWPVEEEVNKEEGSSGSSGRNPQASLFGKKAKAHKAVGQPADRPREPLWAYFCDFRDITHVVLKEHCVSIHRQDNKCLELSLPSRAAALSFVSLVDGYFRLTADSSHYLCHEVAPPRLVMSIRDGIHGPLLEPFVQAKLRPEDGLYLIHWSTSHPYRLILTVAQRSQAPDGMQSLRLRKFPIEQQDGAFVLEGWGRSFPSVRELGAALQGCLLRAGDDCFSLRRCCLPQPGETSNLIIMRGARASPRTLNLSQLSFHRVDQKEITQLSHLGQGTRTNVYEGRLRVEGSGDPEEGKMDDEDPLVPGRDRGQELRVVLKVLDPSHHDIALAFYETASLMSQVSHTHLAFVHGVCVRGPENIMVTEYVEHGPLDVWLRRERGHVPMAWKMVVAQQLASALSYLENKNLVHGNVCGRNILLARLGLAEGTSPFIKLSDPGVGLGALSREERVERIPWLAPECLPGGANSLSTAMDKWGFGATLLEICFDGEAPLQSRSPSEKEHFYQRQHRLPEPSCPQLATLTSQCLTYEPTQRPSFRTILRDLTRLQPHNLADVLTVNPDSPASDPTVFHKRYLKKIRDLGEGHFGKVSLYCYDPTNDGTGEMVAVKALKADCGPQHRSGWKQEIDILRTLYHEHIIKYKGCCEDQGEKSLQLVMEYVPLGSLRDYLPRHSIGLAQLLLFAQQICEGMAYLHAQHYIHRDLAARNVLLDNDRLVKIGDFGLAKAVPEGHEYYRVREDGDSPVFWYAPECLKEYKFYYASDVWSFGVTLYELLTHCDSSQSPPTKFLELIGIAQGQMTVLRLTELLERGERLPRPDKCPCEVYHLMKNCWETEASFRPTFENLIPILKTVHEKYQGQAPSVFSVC

[3] = biological target: Tyrosine-protein kinase JAK1 (Homo sapiens, UniProt P23458); experiment: JAK1 (h) Enzyme Reaction
Sequence of Tyrosine-protein kinase JAK1 (P23458 whole entry): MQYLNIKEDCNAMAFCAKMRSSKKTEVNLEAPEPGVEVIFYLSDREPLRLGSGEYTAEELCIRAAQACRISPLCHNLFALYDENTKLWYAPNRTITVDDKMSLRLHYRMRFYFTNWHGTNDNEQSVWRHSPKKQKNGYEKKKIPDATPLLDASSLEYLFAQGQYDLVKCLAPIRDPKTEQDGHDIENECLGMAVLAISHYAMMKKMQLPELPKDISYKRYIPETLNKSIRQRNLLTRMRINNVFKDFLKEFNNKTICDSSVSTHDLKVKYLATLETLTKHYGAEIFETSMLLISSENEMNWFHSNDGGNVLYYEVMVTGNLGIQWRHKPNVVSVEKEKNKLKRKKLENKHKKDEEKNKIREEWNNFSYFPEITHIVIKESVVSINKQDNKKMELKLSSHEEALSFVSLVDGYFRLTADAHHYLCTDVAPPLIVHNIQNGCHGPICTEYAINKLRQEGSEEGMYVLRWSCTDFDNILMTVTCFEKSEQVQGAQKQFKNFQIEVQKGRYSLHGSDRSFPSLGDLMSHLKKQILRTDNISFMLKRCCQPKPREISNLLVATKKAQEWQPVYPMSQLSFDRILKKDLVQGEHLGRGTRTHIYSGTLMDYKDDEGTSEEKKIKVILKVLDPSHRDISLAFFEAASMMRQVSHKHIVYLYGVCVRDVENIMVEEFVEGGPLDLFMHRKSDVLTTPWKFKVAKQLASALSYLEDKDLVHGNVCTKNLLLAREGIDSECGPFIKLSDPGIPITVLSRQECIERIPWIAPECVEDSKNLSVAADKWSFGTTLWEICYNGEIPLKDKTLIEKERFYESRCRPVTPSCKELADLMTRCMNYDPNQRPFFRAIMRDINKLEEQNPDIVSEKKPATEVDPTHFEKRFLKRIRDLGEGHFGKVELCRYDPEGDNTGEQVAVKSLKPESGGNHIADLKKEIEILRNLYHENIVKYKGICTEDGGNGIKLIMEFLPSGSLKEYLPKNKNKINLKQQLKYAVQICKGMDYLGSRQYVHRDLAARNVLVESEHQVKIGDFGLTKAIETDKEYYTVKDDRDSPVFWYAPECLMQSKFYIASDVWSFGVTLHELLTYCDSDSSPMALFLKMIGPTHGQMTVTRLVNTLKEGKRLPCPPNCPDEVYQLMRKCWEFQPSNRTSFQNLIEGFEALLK

[4] = biological target: Tyrosine-protein kinase JAK2 (Homo sapiens, UniProt O60674); experiment: JAK2 (h) Enzyme Reaction
Sequence of Tyrosine-protein kinase JAK2 (O60674 whole entry): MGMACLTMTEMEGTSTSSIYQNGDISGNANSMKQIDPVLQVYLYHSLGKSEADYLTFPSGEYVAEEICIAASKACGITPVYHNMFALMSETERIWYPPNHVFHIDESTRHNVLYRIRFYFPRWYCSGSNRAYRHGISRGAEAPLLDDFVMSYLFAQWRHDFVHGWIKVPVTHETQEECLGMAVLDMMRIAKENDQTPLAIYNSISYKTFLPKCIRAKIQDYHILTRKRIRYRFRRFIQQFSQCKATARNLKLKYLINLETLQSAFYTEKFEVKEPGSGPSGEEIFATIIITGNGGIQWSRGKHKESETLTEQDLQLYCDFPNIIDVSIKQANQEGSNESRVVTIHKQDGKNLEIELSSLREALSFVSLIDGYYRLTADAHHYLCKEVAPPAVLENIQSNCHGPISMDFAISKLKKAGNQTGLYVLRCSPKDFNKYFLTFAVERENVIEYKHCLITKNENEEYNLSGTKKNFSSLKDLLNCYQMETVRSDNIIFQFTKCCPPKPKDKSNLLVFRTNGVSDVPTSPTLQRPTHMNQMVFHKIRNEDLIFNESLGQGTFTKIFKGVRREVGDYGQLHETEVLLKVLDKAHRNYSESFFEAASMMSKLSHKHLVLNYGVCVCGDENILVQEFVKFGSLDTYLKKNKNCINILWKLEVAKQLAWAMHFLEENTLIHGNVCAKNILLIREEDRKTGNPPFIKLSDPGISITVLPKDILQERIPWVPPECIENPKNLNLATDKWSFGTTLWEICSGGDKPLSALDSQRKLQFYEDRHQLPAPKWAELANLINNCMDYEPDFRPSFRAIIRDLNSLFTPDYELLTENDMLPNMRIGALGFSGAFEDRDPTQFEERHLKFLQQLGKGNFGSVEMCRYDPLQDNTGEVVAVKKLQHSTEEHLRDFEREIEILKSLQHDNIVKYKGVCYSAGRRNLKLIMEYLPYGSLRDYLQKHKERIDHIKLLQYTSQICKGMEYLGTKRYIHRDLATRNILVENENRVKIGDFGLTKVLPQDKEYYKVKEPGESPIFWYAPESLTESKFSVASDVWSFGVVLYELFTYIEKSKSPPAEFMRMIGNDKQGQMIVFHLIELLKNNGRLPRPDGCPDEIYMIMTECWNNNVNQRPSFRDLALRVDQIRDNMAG

IC50 [1]: > 10 µM
IC50 [2]: 0.175 µM
IC50 [3]: 0.224 µM
IC50 [4]: 0.624 µM
SMILES: N#CCC(=O)N1CC2(CCC(c3cccc4nc(NC(=O)[C@@H]5CC5(F)F)nn34)CC2)C1 [US12419873, Compound 9-5]
